Measured values from ChEMBL document CHEMBL1139699, “Solid-phase synthesis and antibacterial activity of hydroxycinnamic acid amides and analogues against methicillin-resistant Staphylococcus aureus and vancomycin-resistant S. aureus” (Bioorg Med Chem Lett, 2006).
Values after ≈ are worked out from the molar mass of the structure shown. Active and inactive are the calls of the source. The calls are words filed in the database; no cut-off is given here.

Legend:
[1] = system: Staphylococcus aureus; assay: Antibacterial activity against methicillin-resistant Staphylococcus aureus 20633 at 25 ug/ml; assay type: functional, organism-based
[2] = system: Staphylococcus aureus; assay: Antibacterial activity against methicillin-resistant Staphylococcus aureus 20631; assay type: functional
[3] = Cytotoxicity against human gingival cells; assay type: cell-based
[4] = system: Staphylococcus aureus; assay: Antibacterial activity against vancomycin-resistant Staphylococcus aureus 20624; assay type: functional
[5] = system: Staphylococcus aureus; assay: Antibacterial activity against vancomycin-resistant Staphylococcus aureus 21083; assay type: functional
[6] = system: Staphylococcus aureus; assay: Antibacterial activity against methicillin-resistant Staphylococcus aureus 20653 at 25 ug/ml; assay type: functional, organism-based
[7] = system: Staphylococcus aureus; assay: Antibacterial activity against methicillin-resistant Staphylococcus aureus 20635; assay type: functional
[8] = system: Staphylococcus aureus; assay: Antibacterial activity against methicillin-resistant Staphylococcus aureus 20628 at 25 ug/ml; assay type: functional, organism-based
[9] = system: Staphylococcus aureus; assay: Antibacterial activity against methicillin-resistant Staphylococcus aureus 20654 at 25 ug/ml; assay type: functional, organism-based
[10] = system: Staphylococcus aureus; assay: Antibacterial activity against methicillin-resistant Staphylococcus aureus; assay type: functional
[11] = system: Staphylococcus aureus; assay: Antibacterial activity against methicillin-resistant Staphylococcus aureus 20632; assay type: functional
[12] = system: Staphylococcus aureus; assay: Antibacterial activity against vancomycin-resistant Staphylococcus aureus 20623; assay type: functional
[13] = system: Staphylococcus aureus; assay: Antibacterial activity against methicillin-resistant Staphylococcus aureus 20636 at 25 ug/ml; assay type: functional, organism-based
[14] = system: Staphylococcus aureus; assay: Antibacterial activity against methicillin-resistant Staphylococcus aureus 20652 at 25 ug/ml; assay type: functional, organism-based
[15] = system: Staphylococcus aureus; assay: Antibacterial activity against vancomycin-resistant Staphylococcus aureus 20622; assay type: functional
[16] = system: Staphylococcus aureus; assay: Antibacterial activity against methicillin-resistant Staphylococcus aureus 20630; assay type: functional
[17] = system: Staphylococcus aureus; assay: Antibacterial activity against methicillin-resistant Staphylococcus aureus 20628; assay type: functional
[18] = system: Staphylococcus aureus; assay: Antibacterial activity against methicillin-resistant Staphylococcus aureus 20652 at 50 ug/ml; assay type: functional, organism-based
[19] = system: Staphylococcus aureus; assay: Antibacterial activity against methicillin-resistant Staphylococcus aureus 20653; assay type: functional
[20] = system: Staphylococcus aureus; assay: Antibacterial activity against methicillin-resistant Staphylococcus aureus 20654; assay type: functional
[21] = system: Staphylococcus aureus; assay: Antibacterial activity against methicillin-resistant Staphylococcus aureus 20636; assay type: functional
[22] = system: Staphylococcus aureus; assay: Antibacterial activity against methicillin-resistant Staphylococcus aureus 20633; assay type: functional
[23] = system: Staphylococcus aureus; assay: Antibacterial activity against methicillin-resistant Staphylococcus aureus 20630 at 256 ug/ml; assay type: functional, organism-based
[24] = system: Staphylococcus aureus; assay: Antibacterial activity against vancomycin-resistant Staphylococcus aureus 20624 at 256 ug/ml; assay type: functional, organism-based
[25] = system: Staphylococcus aureus; assay: Antibacterial activity against vancomycin-resistant Staphylococcus aureus 20623 at 256 ug/ml; assay type: functional, organism-based
[26] = system: Staphylococcus aureus; assay: Antibacterial activity against methicillin-resistant Staphylococcus aureus 20654 at 256 ug/ml; assay type: functional, organism-based
[27] = system: Staphylococcus aureus; assay: Antibacterial activity against vancomycin-resistant Staphylococcus aureus 21083 at 256 ug/ml; assay type: functional, organism-based
[28] = system: Staphylococcus aureus; assay: Antibacterial activity against methicillin-resistant Staphylococcus aureus 20633 at 256 ug/ml; assay type: functional, organism-based
[29] = system: Staphylococcus aureus; assay: Antibacterial activity against methicillin-resistant Staphylococcus aureus 20631 at 256 ug/ml; assay type: functional, organism-based
[30] = system: Staphylococcus aureus; assay: Antibacterial activity against methicillin-resistant Staphylococcus aureus 20653 at 256 ug/ml; assay type: functional, organism-based
[31] = system: Staphylococcus aureus; assay: Antibacterial activity against methicillin-resistant Staphylococcus aureus 20632 at 256 ug/ml; assay type: functional, organism-based
[32] = system: Staphylococcus aureus; assay: Antibacterial activity against methicillin-resistant Staphylococcus aureus 20652 at 256 ug/ml; assay type: functional, organism-based
[33] = system: Staphylococcus aureus; assay: Antibacterial activity against methicillin-resistant Staphylococcus aureus 20628 at 256 ug/ml; assay type: functional, organism-based
[34] = system: Staphylococcus aureus; assay: Antibacterial activity against vancomycin-resistant Staphylococcus aureus 20622 at 256 ug/ml; assay type: functional, organism-based
[35] = system: Staphylococcus aureus; assay: Antibacterial activity against methicillin-resistant Staphylococcus aureus 20635 at 256 ug/ml; assay type: functional, organism-based
[36] = system: Staphylococcus aureus; assay: Antibacterial activity against methicillin-resistant Staphylococcus aureus 20636 at 256 ug/ml; assay type: functional, organism-based
[37] = system: Staphylococcus aureus; assay: Antibacterial activity against methicillin-resistant Staphylococcus aureus at 256 ug/ml; assay type: functional, organism-based
[38] = system: Staphylococcus aureus; assay: microbe, parasite or virus in culture; settings: 20652
[39] = system: Staphylococcus aureus; assay: Antibacterial activity against methicillin-resistant Staphylococcus aureus 20652 at 100 ug/ml; assay type: functional, organism-based

In the case of `NCCCCCNC(=O)CCc1ccc(O)c(O)c1`, the Activity [1] is reported as “inactive”, the MIC [2] is reported as 50 µg/mL (≈ 188 µM) and the IC50 [3] is reported as over 100 µg/mL. For the same compound, the MIC [4] was 50 µg/mL (≈ 188 µM), the MIC [5] was 25 µg/mL (≈ 93.9 µM) and the Activity [6] was “inactive”. The MIC [7] was 25 µg/mL (≈ 93.9 µM), the Activity [8] was “inactive” and the Activity [9] was “inactive”. For the same compound, the MIC [10] was 50 µg/mL (≈ 188 µM), the MIC [11] was 50 µg/mL (≈ 188 µM) and the MIC [12] was 25 µg/mL (≈ 93.9 µM). For the same compound, the Activity [13] was “inactive”, the Activity [14] was “inactive” and the MIC [15] was 50 µg/mL (≈ 188 µM). It also gave an MIC [16] of 50 µg/mL (≈ 188 µM).
`NCCCCNC(=O)CCc1ccc(O)c(O)c1` gave an MIC [2] of 25 µg/mL (≈ 99.1 µM), an IC50 [3] of over 100 µg/mL and an MIC [4] of 25 µg/mL (≈ 99.1 µM). It also gave an MIC [5] of 25 µg/mL (≈ 99.1 µM), an MIC [7] of 12.5 µg/mL (≈ 49.5 µM) and an MIC [17] of 50 µg/mL (≈ 198 µM). For the same compound, the Activity [18] was “inactive”, the MIC [19] was 25 µg/mL (≈ 99.1 µM) and the MIC [20] was 25 µg/mL (≈ 99.1 µM). The MIC [10] was 25 µg/mL (≈ 99.1 µM), the MIC [11] was 25 µg/mL (≈ 99.1 µM) and the MIC [21] was 25 µg/mL (≈ 99.1 µM). For the same compound, the MIC [22] was 25 µg/mL (≈ 99.1 µM), the MIC [12] was 25 µg/mL (≈ 99.1 µM) and the MIC [15] was 100 µg/mL (≈ 396 µM). It also gave an MIC [16] of 50 µg/mL (≈ 198 µM).
`NCCCNC(=O)CCc1ccc(O)c(O)c1` gave an MIC [2] of 50 µg/mL (≈ 210 µM), an IC50 [3] of over 100 µg/mL and an MIC [4] of 50 µg/mL (≈ 210 µM). It also gave an MIC [5] of 25 µg/mL (≈ 105 µM), an MIC [7] of 25 µg/mL (≈ 105 µM) and an MIC [17] of 50 µg/mL (≈ 210 µM). For the same compound, the Activity [18] was “inactive”, the MIC [19] was 25 µg/mL (≈ 105 µM) and the MIC [20] was 50 µg/mL (≈ 210 µM). It also gave an MIC [10] of 50 µg/mL (≈ 210 µM), an MIC [11] of 50 µg/mL (≈ 210 µM) and an MIC [21] of 25 µg/mL (≈ 105 µM). It also gave an MIC [22] of 50 µg/mL (≈ 210 µM), an MIC [12] of 50 µg/mL (≈ 210 µM) and an MIC [15] of 100 µg/mL (≈ 420 µM). It also gave an MIC [16] of 50 µg/mL (≈ 210 µM).
In the case of `Cc1onc(-c2ccccc2)c1C(=O)N[C@@H]1C(=O)N2[C@@H]1SC(C)(C)[C@@H]2C(=O)O`, the Activity [23] is reported as “inactive”, the Activity [24] is reported as “inactive” and the Activity [25] is reported as “inactive”. For the same compound, the Activity [26] was “inactive”, the Activity [27] was “inactive” and the Activity [28] was “inactive”. The Activity [29] was “inactive”, the Activity [30] was “inactive” and the Activity [31] was “inactive”. For the same compound, the Activity [32] was “inactive”, the Activity [33] was “inactive” and the Activity [34] was “inactive”. For the same compound, the Activity [35] was “inactive”, the Activity [36] was “inactive” and the Activity [37] was “inactive”.
In the case of `CN[C@H](CC(C)C)C(=O)N[C@H]1C(=O)N[C@@H](CC(N)=O)C(=O)N[C@H]2C(=O)N[C@H]3C(=O)N[C@H](C(=O)N[C@H](C(=O)O)c4cc(O)cc(O)c4-c4cc3ccc4O)[C@H](O)c3ccc(c(Cl)c3)Oc3cc2cc(c3O[C@@H]2O[C@H](CO)[C@@H](O)[C@H](O)[C@H]2O[C@H]2C[C@](C)(N)[C@H](O)[C@H](C)O2)Oc2ccc(cc2Cl)[C@H]1O` [VANCOMYCIN], the MIC [2] is reported as 48 µg/mL (≈ 33.1 µM), the Activity [24] is reported as “inactive” and the Activity [25] is reported as “inactive”. The MIC [7] was 8 µg/mL (≈ 5.52 µM), the Activity [27] was “inactive” and the MIC [20] was 1.5 µg/mL (≈ 1.04 µM). The MIC [11] was 3 µg/mL (≈ 2.07 µM), the MIC [21] was 1.5 µg/mL (≈ 1.04 µM) and the MIC [38] was 0.25 µg/mL (≈ 0.173 µM). For the same compound, the Activity [34] was “inactive” and the MIC [16] was 1.5 µg/mL (≈ 1.04 µM).
In the case of `NCCCCCCNC(=O)/C=C/c1ccc(O)c(O)c1`, the MIC [2] is reported as 50 µg/mL (≈ 180 µM), the IC50 [3] is reported as over 100 µg/mL and the MIC [4] is reported as 50 µg/mL (≈ 180 µM). For the same compound, the MIC [5] was 25 µg/mL (≈ 89.8 µM), the Activity [39] was “inactive” and the MIC [7] was 25 µg/mL (≈ 89.8 µM). For the same compound, the MIC [17] was 50 µg/mL (≈ 180 µM), the MIC [19] was 25 µg/mL (≈ 89.8 µM) and the MIC [20] was 25 µg/mL (≈ 89.8 µM). For the same compound, the MIC [10] was 100 µg/mL (≈ 359 µM), the MIC [11] was 50 µg/mL (≈ 180 µM) and the MIC [21] was 50 µg/mL (≈ 180 µM). It also gave an MIC [22] of 50 µg/mL (≈ 180 µM), an MIC [12] of 50 µg/mL (≈ 180 µM) and an MIC [15] of 100 µg/mL (≈ 359 µM). It also gave an MIC [16] of 50 µg/mL (≈ 180 µM).
